Test results taken from the supplement of paper PMC10307832.

Columns and labels:
Assay in all cases: relative viability (nuclei count vs DMSO), 5 days (fraction); higher = more cells survive
Ispinesib + Dasatinib = compound: Cc1ccc(C(=O)N(CCCN)[C@@H](c2nc3cc(Cl)ccc3c(=O)n2Cc2ccccc2)C(C)C)cc1 [Ispinesib] + Cc1nc(Nc2ncc(C(=O)Nc3c(C)cccc3Cl)s2)cc(N2CCN(CCO)CC2)n1 [Dasatinib] (partner 0.075 µM)
In short: (§1)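 Each reported value is a median over duplicate plates. It expresses relative viability: treated-well nuclei count divided by vehicle-well nuclei count. Lung cancer cell lines in 1536-well plates were dosed by pin tool a day after seeding, alone with one drug or with a fixed anchor-drug dose plus five library-drug doses (not always all listed) in √10 steps, and nuclei were counted after 5 days.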

Linsitinib + Foretinib = compound: C[C@]1(O)C[C@@H](c2nc(-c3ccc4ccc(-c5ccccc5)nc4c3)c3c(N)nccn32)C1 [Linsitinib] + COc1cc2c(Oc3ccc(NC(=O)C4(C(=O)Nc5ccc(F)cc5)CC4)cc3F)ccnc2cc1OCCCN1CCOCC1 [Foretinib] (partner 0.25 µM)
In short: as §1

Ispinesib + AZD7762 = compound: Cc1ccc(C(=O)N(CCCN)[C@@H](c2nc3cc(Cl)ccc3c(=O)n2Cc2ccccc2)C(C)C)cc1 [Ispinesib] + NC(=O)Nc1cc(-c2cccc(F)c2)sc1C(=O)N[C@H]1CCCNC1 [AZD7762] (partner 0.2 µM)
In short: as §1

Linsitinib + AZD7762 = compound: C[C@]1(O)C[C@@H](c2nc(-c3ccc4ccc(-c5ccccc5)nc4c3)c3c(N)nccn32)C1 [Linsitinib] + NC(=O)Nc1cc(-c2cccc(F)c2)sc1C(=O)N[C@H]1CCCNC1 [AZD7762] (partner 0.2 µM)
In short: as §1

Cell Line | relative viability (Ispinesib + Dasatinib; first compound 0.001 µM) | relative viability (Ispinesib + Dasatinib; first compound 0.003162 µM) | relative viability (Ispinesib + Dasatinib; first compound 0.01 µM) | relative viability (Ispinesib + Dasatinib; first compound 0.03162 µM) | relative viability (Ispinesib + Dasatinib; first compound 0.1 µM) | relative viability (Linsitinib + Foretinib; first compound 0.01 µM) | relative viability (Linsitinib + Foretinib; first compound 0.03162 µM) | relative viability (Linsitinib + Foretinib; first compound 0.1 µM) | relative viability (Linsitinib + Foretinib; first compound 0.3162 µM) | relative viability (Linsitinib + Foretinib; first compound 1 µM) | relative viability (Ispinesib + AZD7762; first compound 0.001 µM) | relative viability (Ispinesib + AZD7762; first compound 0.003162 µM) | relative viability (Ispinesib + AZD7762; first compound 0.01 µM) | relative viability (Ispinesib + AZD7762; first compound 0.03162 µM) | relative viability (Ispinesib + AZD7762; first compound 0.1 µM) | relative viability (Linsitinib + AZD7762; first compound 0.01 µM) | relative viability (Linsitinib + AZD7762; first compound 0.03162 µM) | relative viability (Linsitinib + AZD7762; first compound 0.1 µM) | relative viability (Linsitinib + AZD7762; first compound 0.3162 µM) | relative viability (Linsitinib + AZD7762; first compound 1 µM)
NCI-H661 | 0.999 | 0.982 | 0.921 | 0.353 | 0.251 | 0.974 | 1.07 | 1.01 | 0.932 | 1 | – | – | – | – | – | – | – | – | – | –
NCI-H1944 | 0.214 | 0.266 | 0.211 | 0.184 | 0.104 | 0.921 | 1.02 | 0.821 | 0.674 | 0.674 | 0.443 | 0.483 | 0.482 | 0.32 | 0.189 | 0.469 | 0.455 | 0.547 | 0.478 | 0.266
NCI-H23 | 0.857 | 1.02 | 0.885 | 0.653 | 0.188 | 1.04 | 1.06 | 0.924 | 0.949 | 1 | 0.202 | 0.254 | 0.274 | 0.184 | 0.157 | 0.239 | 0.205 | 0.215 | 0.254 | 0.23
SW 900 | 0.561 | 0.654 | 0.782 | 0.246 | 0.196 | 0.894 | 1.07 | 0.881 | 0.857 | 0.503 | 0.635 | 0.492 | 0.648 | 0.565 | 0.259 | 0.921 | 0.64 | 0.629 | 0.727 | 0.368
NCI-H2342 | 0.284 | 0.305 | 0.328 | 0.284 | 0.27 | 1.06 | 1.05 | 1.06 | 1.01 | 0.959 | 0.609 | 0.432 | 0.528 | 0.411 | 0.373 | 0.405 | 0.544 | 0.526 | 0.454 | 0.414
HCC-366 | 0.701 | 0.74 | 0.733 | 0.704 | 0.0265 | 0.95 | 0.996 | 0.907 | 0.932 | 0.956 | 0.267 | 0.29 | 0.204 | 0.346 | 0.0475 | 0.261 | 0.228 | 0.301 | 0.361 | 0.12
EBC-1 | – | – | – | – | – | 0.115 | 0.109 | 0.0995 | 0.106 | 0.104 | – | – | – | – | – | – | – | – | – | –
ChaGo-K-1 | 0.584 | 0.605 | 0.643 | 0.668 | 0.226 | 0.853 | 0.903 | 0.85 | 0.762 | 0.882 | 1.01 | 0.874 | 0.879 | 0.903 | 0.245 | 0.893 | 0.91 | 0.855 | – | 0.799
LCLC-97TM1 | 0.86 | 0.825 | 1.03 | 0.631 | 0.221 | 0.971 | 0.95 | 0.879 | 0.832 | 0.823 | 0.322 | 0.348 | 0.326 | 0.247 | 0.119 | 0.299 | 0.271 | 0.317 | 0.162 | 0.271
NCI-H1299 | – | – | – | – | – | 1.07 | 1.11 | 1.13 | 1.12 | 1.11 | – | – | – | – | – | – | – | – | – | –
NCI-H1623 | 0.63 | 0.63 | 0.523 | 0.461 | 0.468 | 0.871 | 0.913 | 0.85 | – | 0.671 | – | – | – | – | – | – | – | – | – | –
COR-L23 | 0.564 | 0.498 | 0.474 | 0.0917 | 0.172 | 0.892 | 0.996 | 0.905 | 0.834 | 0.861 | – | – | – | – | – | – | – | – | – | –
HCC-44 | – | – | – | – | – | – | – | – | – | – | 0.983 | 1.1 | 1.02 | 1.03 | 0.756 | 1.01 | 0.962 | 0.995 | 0.855 | 0.925
IA-LM | – | – | – | – | – | 1.12 | 1.06 | 0.867 | 0.783 | 1.07 | – | – | – | – | – | – | – | – | – | –
NCI-H520 | 0.164 | 0.229 | 0.178 | 0.152 | 0.198 | 0.704 | 0.529 | 0.988 | – | 0.952 | – | – | – | – | – | – | – | – | – | –
A549 | – | – | – | – | – | 0.97 | 0.953 | 0.999 | 0.695 | 0.875 | – | – | – | – | – | – | – | – | – | –
NCI-H2009 | 0.264 | 0.325 | 0.271 | 0.142 | 0.144 | 1.25 | 1.18 | 1.26 | – | 1.24 | – | – | – | – | – | – | – | – | – | –
NCI-H1563 | 0.395 | 0.483 | 0.469 | 0.417 | 0.378 | 0.865 | 0.984 | 0.98 | 0.98 | 0.903 | – | – | – | – | – | – | – | – | – | –
Calu-6 | – | – | – | – | – | 0.826 | 0.768 | 0.837 | 0.799 | 0.726 | – | – | – | – | – | – | – | – | – | –
NCI-H1650 | 0.35 | 0.353 | 0.349 | 0.186 | 0.151 | 1.2 | 0.902 | 1.12 | 0.697 | 1.03 | – | – | – | – | – | – | – | – | – | –
SK-LU-1 | 0.173 | 0.173 | 0.173 | 0.144 | 0.112 | 0.813 | – | 0.804 | 0.712 | 0.72 | – | – | – | – | – | – | – | – | – | –
SK-MES-1 | 0.326 | 0.373 | 0.384 | 0.165 | 0.231 | 0.865 | 1.08 | 0.999 | 0.778 | 0.81 | – | – | – | – | – | – | – | – | – | –
NCI-H2023 | 0.693 | 0.613 | 0.613 | 0.306 | 0.146 | 0.864 | 0.546 | 0.835 | 0.512 | 0.515 | – | – | – | – | – | – | – | – | – | –
COR-L 105 | 0.462 | 0.303 | 0.31 | 0.195 | 0.238 | 0.969 | 1.03 | 1.08 | 0.956 | 0.908 | – | – | – | – | – | – | – | – | – | –
NCI-H1648 | – | – | – | – | – | – | – | – | – | – | 0.653 | 0.774 | 0.682 | 0.616 | 0.273 | 0.683 | 0.671 | 0.713 | 0.692 | 0.612
SW 1573 | 0.529 | 0.426 | 0.721 | 0.122 | 0.153 | 0.959 | 0.912 | 0.764 | 0.744 | 0.628 | – | – | – | – | – | – | – | – | – | –
